In patent US7608718B2, “4,5-dihydro-1H-pyrazole derivatives having potent CB1-antagonistic activity” (Solvay Pharmaceuticals B.V., priority 2001, dated 2009):

Compared with `CCCN(C)S(=O)(=O)N=C(NC)N1CC(c2ccccc2)C(c2ccc(Cl)cc2)=N1` (centres unmarked), `CCCN(CC)S(=O)(=O)N=C(NC)N1CC(c2ccccc2)C(c2ccc(Cl)cc2)=N1` (centres unmarked) [Example 1, 3-(4-Chlorophenyl)-N′-(((ethyl)propylamino)sulfonyl)-N-methyl-4-phenyl-4,5-dihydro-1H-pyrazole-1-carboxamidine] is lower in melting point: 132 to 134 °C for the first, 129 to 131 °C for the second.

Compared with `CN(C)S(=O)(=O)N=C(NCC(F)(F)F)N1CC(c2ccccc2)C(c2ccc(Cl)cc2)=N1` (centres unmarked), `CN(C)S(=O)(=O)N=C(NCCF)N1CC(c2ccccc2)C(c2ccc(Cl)cc2)=N1` (centres unmarked) [Example 32, 3-(4-Chlorophenyl)-N′-((dimethylamino)sulfonyl)-N-(2-fluoroethyl)-4-phenyl-4,5-dihydro-1H-pyrazole-1-carboxamidine] is lower in melting point: 158 to 159 °C for the first, 128 to 131 °C for the second.

First: CSC(=NS(=O)(=O)N1CCCCC1)N1CC(c2ccccc2)C(c2ccc(Cl)cc2)=N1 (centres unmarked)
Second: CSC(=NS(=O)(=O)N1CCCCC1)N1CC(c2ccccc2F)C(c2ccc(Cl)cc2)=N1 (centres unmarked) [Example 48, 3-(4-Chlorophenyl)-4-(2-fluorophenyl)-N-((piperidin-1-yl)sulfonyl)-4,5-dihydro-1H-pyrazole-1-carboximidothioic acid methyl ester]
The melting point of the first is lower: 192 to 194 °C for the first, 196 to 198 °C for the second.

Compared with `CSC(=NS(=O)(=O)N1CCOCC1)N1CC(c2ccccc2)C(c2ccc(Cl)cc2)=N1` (centres unmarked), `CSC(=NS(=O)(=O)N1CCOCC1)N1CC(c2ccccc2F)C(c2ccc(Cl)cc2)=N1` (centres unmarked) [Example 47, 3-(4-Chlorophenyl)-4-(2-fluorophenyl)-N-((morpholin-4-yl)sulfonyl)-4,5-dihydro-1H-pyrazole-1-carboximidothioic acid methyl ester] is higher in melting point: 202 to 204 °C for the first, 205 to 207 °C for the second.

Compared with `CSC(=NS(=O)(=O)N(C)C)N1CC(c2c(F)cccc2F)C(c2ccc(Cl)cc2)=N1` (centres unmarked), `CSC(=NS(=O)(=O)N(C)C)N1CC(c2ccccc2)C(c2ccc(Cl)cc2)=N1` (centres unmarked) [Example 36, 3-(4-Chlorophenyl)-N-((dimethylamino)sulfonyl)-4-phenyl-4,5-dihydro-1H-pyrazole-1-carboximidothioic acid methyl ester] is lower in melting point: 181 to 185 °C for the first, 159 to 160 °C for the second.

Compared with `CCN(CC)S(=O)(=O)N=C(NC1CC1)N1CC(c2ccccc2)C(c2ccc(Cl)cc2)=N1` (centres unmarked), `CCN(CC)S(=O)(=O)N=C(NCCO)N1CC(c2ccccc2)C(c2ccc(Cl)cc2)=N1` (centres unmarked) [Example 3, 3-(4-Chlorophenyl)-N′-((diethylamino)sulfonyl)-N-(2-hydroxyethyl)-4-phenyl-4,5-dihydro-1H-pyrazole-1-carboxamidine] is lower in melting point: 150 to 151 °C for the first, 104 to 106 °C for the second.

Compared with `CCN(C)C(=NS(=O)(=O)N1CCCCC1)N1CC(c2ccccc2)C(c2ccc(Cl)cc2)=N1` (centres unmarked), `CSC(=NS(=O)(=O)N1CCCCC1)N1CC(c2cccnc2)C(c2ccc(Cl)cc2)=N1` (centres unmarked) [Example 45, 3-(4-Chlorophenyl)-N-((piperidin-1-yl)sulfonyl)-4-(pyridin-3-yl)-4,5-dihydro-1H-pyrazole-1-carboximidothioic acid methyl ester] is higher in melting point: 178 °C for the first, 182 to 185 °C for the second.

`CCN(c1ccccc1)S(=O)(=O)N=C(NC)N1CC(c2ccccc2)C(c2ccc(Cl)cc2)=N1` (centres unmarked) and `CCN(c1ccccc1)S(=O)(=O)N=C(SC)N1CC(c2ccccc2)C(c2ccc(Cl)cc2)=N1` (centres unmarked) [Example 39, 3-(4-Chlorophenyl)-N-(((ethyl)phenylamino)sulfonyl)-4-phenyl-4,5-dihydro-1H-pyrazole-1-carboximidothioic acid methyl ester] cannot be ordered by melting point: 145 to 147 °C for the first, 143 to 146 °C for the second.

Compared with `CNC(=NS(=O)(=O)N1CCCCC1)N1CC(c2cccc(C(F)(F)F)c2)C(c2ccc(Cl)cc2)=N1` (centres unmarked), `CNC(=NS(=O)(=O)N(C)C)N1CC(c2cccc(C(F)(F)F)c2)C(c2ccc(Cl)cc2)=N1` (centres unmarked) is lower in melting point: 168 to 170 °C for the first, 65 to 68 °C for the second.

First: CCN(C)S(=O)(=O)N=C(NC)N1CC(c2cccnc2)C(c2ccc(Cl)cc2)=N1 (centres unmarked)
Second: CCN(C)S(=O)(=O)N=C(SC)N1CC(c2cccnc2)C(c2ccc(Cl)cc2)=N1 (centres unmarked) [Example 44, 3-(4-Chlorophenyl)-N-(((ethyl)methylamino)sulfonyl)-4-(pyridin-3-yl)-4,5-dihydro-1H-pyrazole-1-carboximidothioic acid methyl ester]
The melting point of the first is lower: 125 to 128 °C for the first, 133 to 136 °C for the second.

Compared with `CN(C)S(=O)(=O)N=C(NCCO)N1CC(c2ccccc2)C(c2ccc(Cl)cc2)=N1` (centres unmarked) [Example 18, 3-(4-Chlorophenyl)-N′-((dimethylamino)sulfonyl)-N-(2-hydroxyethyl)-4-phenyl-4,5-dihydro-1H-pyrazole-1-carboxamidine], `CCCNC(=NS(=O)(=O)N(C)C)N1CC(c2ccccc2)C(c2ccc(Cl)cc2)=N1` (centres unmarked) [Example 31, 3-(4-Chlorophenyl)-N′-((dimethylamino)sulfonyl)-N-propyl-4-phenyl-4,5-dihydro-1H-pyrazole-1-carboxamidine] is higher in melting point: 123 to 126 °C for the first, 127 to 129 °C for the second.

`CCCN(CCC)S(=O)(=O)N=C(NC)N1CC(c2ccccc2)C(c2ccc(Cl)cc2)=N1` (centres unmarked) [Example 26, 3-(4-Chlorophenyl)-N′-((dipropylamino)sulfonyl)-N-methyl-4-phenyl-4,5-dihydro-1H-pyrazole-1-carboxamidine] and `CCN(CC)S(=O)(=O)N=C(SC)N1CC(c2ccccc2)C(c2ccc(Cl)cc2)=N1` (centres unmarked) [Example 37, 3-(4-Chlorophenyl)-N-((diethylamino)sulfonyl)-4-phenyl-4,5-dihydro-1H-pyrazole-1-carboximidothioic acid methyl ester] cannot be ordered by melting point: 141 to 142 °C for the first, 141 to 143 °C for the second.

Compared with `CONC(=NS(=O)(=O)N(C)C)N1CC(c2ccccc2)C(c2ccc(Cl)cc2)=N1` (centres unmarked) [Example 34, 3-(4-Chlorophenyl)-N′-((dimethylamino)sulfonyl)-N-methoxy-4-phenyl-4,5-dihydro-1H-pyrazole-1-carboxamidine], `CSC(=NS(=O)(=O)N1CCS(=O)(=O)CC1)N1CC(c2ccccc2)C(c2ccc(Cl)cc2)=N1` (centres unmarked) [Example 53, 3-(4-Chlorophenyl)-N-((1,1-dioxidothiomorpholin-4-yl)sulfonyl)-4-phenyl-4,5-dihydro-1H-pyrazole-1-carboximidothioic acid methyl ester] is higher in melting point: 170 to 172 °C for the first, 216 to 217 °C for the second.

Compared with `CSC(=NS(=O)(=O)N1CCc2ccccc2C1)N1CC(c2ccccc2)C(c2ccc(Cl)cc2)=N1` (centres unmarked) [Example 38, 3-(4-Chlorophenyl)-4-phenyl-N-((1,2,3,4-tetrahydroisoquinolin-2-yl)sulfonyl)-4,5-dihydro-1H-pyrazole-1-carboximidothioic acid methyl ester], `CSC(=NS(=O)(=O)N1CCOCC1)N1CC(c2c(F)cccc2F)C(c2ccc(Cl)cc2)=N1` (centres unmarked) [Example 50, 3-(4-Chlorophenyl)-4-(2,6-difluorophenyl)-N-((morpholin-4-yl)sulfonyl)-4,5-dihydro-1H-pyrazole-1-carboximidothioic acid methyl ester] is higher in melting point: 143 to 145 °C for the first, 231 to 233 °C for the second.

With `CSC(=NS(=O)(=O)N1CCCCC1)N1CC(c2c(F)cccc2F)C(c2ccc(Cl)cc2)=N1` (centres unmarked) [Example 51, 3-(4-Chlorophenyl)-4-(2,6-difluorophenyl)-N-((piperidin-1-yl)sulfonyl)-4,5-dihydro-1H-pyrazole-1-carboximidothioic acid methyl ester] the melting point was 221 to 225 °C.
